Results reported in patent publication US20030158160A1, “Pharmaceutical combination of an anti-androgen and tamoxifen for providing an anti-androgenic effect and aromatase inhibition” (priority 2000, published 2003).

Assays:
healthy male volunteers = assay: Human clinical trial: free testosterone levels after CASODEX together with NOLVADEX or CASODEX alone; assay type: in vivo; settings: for Free testosterone concentration, gmean: n=7
Method: The following clinical trial was performed to determine the effect of the administration of CASODEX™ together with NOLVADEX™ on free testosterone levels in healthy male volunteers over a 6 week period.
Key Inclusion Criteria: Male, aged 65 years or above showing no clinically significant abnormalities in routine haematological and biochemical tests and having endocrinology and prostate specific antigen (PSA) results within normal limits.
Key Exclusion Criteria: Previous inclusion in a clinical trial using CASODEX™; concurrent treatment with any drugs with the exception of paracetomol; history or presence of any testicular abnormality; history or presence of gastrointestinal, hepatic or renal disease, or other condition known to interfere with the absorption, distribution, metabolism or excretion of drugs; a clinically significant illness within 2 weeks of trial commencement; definite or suspected personal or family history of significant adverse drug reactions or any hypersensitivity to CASODEX™ or NOLVADEX™; treatment within the previous 3 months with any drugs known to have a well-defined potential for hepatotoxicity or hepatic interaction.
Dosage: The CASODEX™ was administered daily at a dose of 150 mg and the NOLVADEX™ was administered daily at a dose of 20 mg. All treatments were in tablet form and taken once daily. Daily treatment with CASODEX™ plus NOLVADEX™ was for 6 weeks, this period being selected as the minimum time to attain steady-state plasma concentrations for the drugs. Another set of volunteers were administered CASODEX™ alone at a daily dose of 150 mg for 4 weeks. All treatments were in tablet form and taken once daily.
Key Assessment: Free testosterone concentrations were measured during the course of the trial.
Day 1 samples were drawn before dosing, and therefore act as a baseline measurement.

humans = settings: single agent therapy; cited from earlier work
men = settings: cited from earlier work

CC(O)(CS(=O)(=O)c1ccc(F)cc1)C(=O)Nc1ccc(C#N)c(C(F)(F)F)c1 (stereo not drawn) [CASODEX™, bicalutamide]
Free testosterone concentration, gmean (healthy male volunteers; Day 1, sample drawn before dosing (baseline)): 0.048 nmol/L | Free testosterone, ratio to Day 1 (healthy male volunteers; Day 29, CASODEX alone 150 mg daily): 1.58 | Free testosterone concentration, gmean (healthy male volunteers; Day 29, CASODEX alone 150 mg daily for 4 weeks): 0.076 nmol/L | Increase in mean free testosterone concentration by the end of the treatment period (healthy male volunteers; end of treatment period (4 weeks CASODEX alone; 6 weeks combination)): 58%

CC1(C)NC(=O)N(c2ccc([N+](=O)[O-])c(C(F)(F)F)c2)C1=O [nilutamide, 5,5-dimethyl-3-[4-nitro-3-(trifluoromethyl)phenyl]-2,4-imidazolidinedione]
Change of basal level of circulating testosterone (humans): causes an increase

CC/C(=C(\c1ccccc1)c1ccc(OCCN(C)C)cc1)c1ccccc1 [tamoxifen, (Z)-2-[p-(1,2-diphenylbut-1-enyl)phenoxy]ethyldimethylamine]
Effect on mean serum testosterone, oestradiol, LH levels, LH pulse frequency and LH pulse amplitude (men; 13 normal men, 6 week administration (Spijkstra et al)): An increase | Effect on basal serum levels of LH, oestradiol and testosterone (men; administration to men (Lewis-Jones et al)): elevates | Effect on testosterone and LH (men; intake in adult men (Comhaire et al)): increase testosterone and LH | Effect on basal LH, FSH and testosterone levels (men; three months' treatment, normogonadotrophic oligozoospermic men (van Bergeijk et al)): stimulated
